Where two headings read alike, the source gives them in different places. Blank lines part the entries; values can stand above or below the compound they belong to.
How the values were obtained:
[1] = cited from earlier work
[2] = Antipyrine clearance by Child-Pugh and DSI; type: in vivo, human
Text: Antipyrine is an analgesic and antipyretic. […] Antipyrine may be used in testing the effects of other drugs or diseases on drug-metabolizing enzymes in the liver, such as various cytochrome p450 (CYP) enzymes, for example, as shown in Table 22.

[3] = individuals with chronic liver disease and cirrhosis; cited from earlier work
[4] = set-up: species or system human; settings: in vivo
Method: In some embodiments, the distinguishable compound is galactose. Galactose elimination capacity (GEC) has been used as an index of residual hepatic function. Galactose in the GEC test typically is administered intravenously at a dose of […] and venous samples taken every 5 min between 20 and 60 minutes. The clearance of galactose is decreased in individuals with chronic liver disease and cirrhosis. The fact that this carbohydrate has a high extraction ratio, however, makes the metabolism of galactose dependent on liver blood flow and hepatic functional mass. […] The carbohydrate galactose is metabolized almost exclusively in the liver, and the elimination rate at blood concentrations high enough to yield near-saturated enzymatic conversion, the GEC is used as a quantitative measure of the metabolic capacity of the liver. One study has shown that among patients with a newly-diagnosed cirrhosis and a decreased GEC, the GEC was a strong predictor of mortality. (Jepsen et al, 2009, The galactose elimination capacity and mortality in 781 Danish patients with newly-diagnosed liver cirrhosis: a cohort study. BMC Gastroenterol. 2009, 9:50).

[5] = Lidocaine MEGX 15 min concentration by Child-Pugh and DSI; type: in vivo, human; settings: by DSI score group (5-15, 15-25, 25-35, 35-45)
Method: Lidocaine elimination and MEGX (monoethylglycinexylidide) formation after oral lidocaine administration may be used as a quantitative assessment of liver function. […] MEGX 15 minute concentrations.

[6] = in vivo
Text: The present inventors analyzed the relationship of DSI to pharmacokinetic parameters of various classes of drugs.
Methionine is an essential amino acid in humans, and is the substrate for other amino acids such as cysteine or taurine. Methionine also may be used to prevent liver toxicity in acetaminophen (Tylenol) poisoning, to increase acidity of urine, treat liver disorders, or improve wound healing. […] The methionine breath test may involve orally administered ^13C-methionine to detect hepatic mitochondrial dysfunction by evaluating level of ^13CO2 exhalation. ^13C methionine breath test may be used to monitor hepatic mitochondrial oxidation and drug-related mitochondrial toxicity in vivo, for example, to detect antiretroviral drug-related mitochondrial toxicity.

[7] = Obeticholic acid plasma exposure versus DSI, clinical trial in NASH; type: in vivo, human; settings: NASH patients, fibrosis F1 to compensated F4
Text: Obeticholic acid (OCA) is a Farnesoid X Receptor (FXR) agonist, bile acid analog of chenodeoxycholic acid that is FDA approved for treatment of primary biliary cholangitis, and is being studied for use in treating other hepatic diseases and conditions. […] The circles are observed data; red lines are linear regression fit. OCA=Obeticholic acid. […] DSI correlates with OCA PK both at baseline (day 1) and at day 85.

Structure (SMILES): Cc1cc(=O)n(-c2ccccc2)n1C [Antipyrine]
- First pass hepatic extraction (qualitative) ([1]; in vivo): low first pass hepatic metabolism
- Average antipyrine clearance ([2]; Child-Pugh class B versus CP A5 and CP A6 patients): decreased average antipyrine clearance
- Average antipyrine clearance ([2]; by DSI score group (5-15, 15-25, 25-35, 35-45)): reduced average antipyrine clearance
- Average antipyrine clearance ([2]; by DSI score group (5-15, 15-25, 25-35, 35-45), listed as antipyrine): lowest PK average values

Structure (SMILES): O=C[C@H](O)[C@@H](O)[C@@H](O)[C@H](O)CO [Galactose]
- Clearance of galactose [3]: decreased
- Average galactose elimination capacity [4]: decreased average galactose elimination capacity
- First pass hepatic extraction (qualitative) ([1]; substrate characterisation): relatively high first pass hepatic extraction

Structure (SMILES): CCN(CC)CC(=O)Nc1c(C)cccc1C [Lidocaine]
- Average MEGX 15 min concentration following lidocaine [5]: lowest PK average values
- First pass hepatic extraction (qualitative) ([1]; substrate characterisation): relatively high first pass hepatic extraction

- Average ^13CO2 exhalation score (methionine breath test) ([6]; human): reduced average ^13CO2 exhalation score
- Average ^13CO2 exhalation score (methionine breath test) [6]: lowest PK average values
Structure (SMILES): CSCC[C@H](N)C(=O)O [Methionine]
- First pass hepatic extraction (qualitative) ([1]; substrate characterisation): relatively low first pass hepatic extraction
- Average methionine breath test value [6]: decreased average methionine breath test values

- Plasma exposure in relation to DSI [7]: related to DSI measurement
Structure (SMILES): CC[C@H]1[C@@H](O)[C@@H]2[C@H](CC[C@]3(C)[C@@H]([C@H](C)CCC(=O)O)CC[C@@H]23)[C@@]2(C)CC[C@@H](O)C[C@@H]12 [Obeticholic acid, 6alpha-ethyl-chenodeoxycholic acid]
